In article PMC11566078, “Bactericidal activities and biochemical features of 16 antimicrobial peptides against bovine-mastitis causative pathogens” (Veterinary Research, 2024):
Like-named read-outs stand apart in the source and are kept apart here. Where no end group is shown, it is not given here.

What was measured:
[1] = system: E. coli (ATCC 25922); type: in vitro ADME, Escherichia coli
Experimental: (§1) The MICs against E. coli (ATCC 25922) for cc-CATH3, ML-CATH, and PD-CATH in 150 mM NaCl and different pH (pH 5, 6, and 7) that were adjusted using acetic acid (Sigma Aldrich) were determined as described above. For serum stability assay, each AMP at four different concentrations was dissolved in 50% (v/v) FBS (Hyclone™) and incubated at 37 °C for 0, 60, and 120 min, respectively. As described in a previous study, ΔHg-CATH was used as a control for serum sensitivity. The antimicrobial activity of cc-CATH3, ML-CATH, and PD-CATH against E. coli was assessed for each condition as above. All experiments were conducted in triplicate.
Figure 2 Changes in the antibacterial activity of cc-CATH3, ML-CATH, and PD-CATH after incubation with naïve serum. cc-CATH3, ML-CATH, and PD-CATH peptides were incubated in 50% (v/v) FBS each for 0, 60, and 120 min before applying to antimicrobial activity assay against E. coli (ATCC 25922). The antimicrobial activity was determined by measuring bacterial growth at OD 450 nm. The X and Y axes indicate peptide concentration and absorbance at 450 nm, respectively. Samples containing 50% FBS in the absence of the peptides indicate a control for bacterial growth without AMP treatments. The antimicrobial activity of cc-CATH3 (A), ML-CATH (B), and PD-CATH (C) after the treatment of FBS-incubated AMPs was shown.

[2] = system: HaCaT cells; experiment: Cytotoxicity, WST-1 cell viability; settings: 24 h, 37 °C, repeated three times
Experimental: (§6) Human keratinocytes (HaCaT) and pig kidney fibroblast cells (PK15, ATCC CCL-33) were cultured in Dulbecco’s modified Eagle’s medium (DMEM; Hyclone™, Logan, UT, USA) and supplemented with 10% foetal bovine serum (FBS; Hyclone™, Logan, UT, USA), 1% penicillin–streptomycin (Hyclone™) at 37 °C, and 5% CO2 up to 80% confluence. Cell substratum adhesion was disrupted using Accutase (Innovative Cell Technologies, San Diego, CA, USA). A total of 4 × 10^4 cells were incubated for 24 h at 37 °C and 5% CO2 in each well of a 96-well plate containing 64 and 160 µg/mL of each peptide.
(§7) A positive control for complete cell lysis was established using Triton-X100 (1%), and untreated cells were used as the negative control. After incubation, the medium was removed from the wells and replaced with 10 µL of colouring solution (Cell Proliferation Reagent WST-1™) and 100 µL of DMEM (Hyclone™), per the manufacturer’s protocol. Each well absorbance was measured at 440 nm (peptide-treated and control) and 650 nm (background). These measurements were recorded as the optical density (OD) using a microplate reader (xMark™ spectrophotometer; Bio-Rad, CA, USA). Cell viability was calculated using the following equation: CellViability(%)=100×(ODpeptide-ODbackground)/(ODnegative-ODbackground)
(§8) All experiments were performed in triplicate.

[3] = system: bovine erythrocytes; experiment: Haemolytic activity; type: cell-based; settings: OD 410 nm, repeated three times
Experimental: The experimental procedures were conducted in accordance with the guidelines approved by the Institutional Animal Care and Use Committee (IACUC) of Konkuk University, Seoul, Korea, and bovine blood was collected from a cow at a local farm using a BD Vacutainer® Sodium Heparin (BD Bioscience) to analyse haemolytic activity. Plasma was removed from the whole blood by centrifugation. Erythrocytes were washed thrice with phosphate-buffered saline (PBS, pH 7.4) and resuspended in PBS at a concentration of 2% (v/v). Subsequently, 100 µL of the erythrocyte suspension was added to each well of a 96-well microtiter plate. The plate contained an equal volume of the peptides in PBS with different concentrations of 10, 20, 40, 80, and 160 μg/mL. Triton-X 100 (1%) and PBS were used as positive and negative controls, respectively. Plates were incubated at 37 °C for 1 h. The release of haemoglobin into the supernatant was monitored by measuring the change in OD at 410 nm using a microplate reader (xMark™ spectrophotometer; Bio-Rad). Results from three independent experiments were pooled. Hemolysis was calculated using the formula: HemolyticPercentage(%)=100×(ODpeptide-ODnegative)/(ODpositive-ODnegative)
All experiments were carried out in triplicate.

[4] = system: PK15 cells; experiment: Cytotoxicity, WST-1 cell viability; settings: 24 h, 37 °C, repeated three times
Experimental: as §6, §7, §8

[5] = system: Corynebacterium simulans; experiment: microbe, parasite or virus in culture; type: cell-based; settings: 6 h
Experimental: (§2) All plates were cultivated aerobically.
(§3) Experiments were conducted in triplicate.

[6] = system: Glutamicibacter halophytocola; experiment: microbe, parasite or virus in culture; type: cell-based; settings: 6 h
Experimental: as §2, §3

[7] = system: Staphylococcus chromogenes; experiment: microbe, parasite or virus in culture; type: cell-based; settings: 6 h
Experimental: as §2, §3

[8] = system: Staphylococcus xylosus; experiment: microbe, parasite or virus in culture; type: cell-based; settings: 6 h
Experimental: as §2, §3

[9] = system: Streptococcus uberis; experiment: microbe, parasite or virus in culture; type: cell-based; settings: 6 h
Experimental: as §2, §3

[10] = system: Staphylococcus epidermidis; experiment: microbe, parasite or virus in culture; type: cell-based; settings: 6 h
Experimental: as §2, §3

[11] = system: Aeromonas hydrophila; experiment: microbe, parasite or virus in culture; type: cell-based; settings: 6 h
Experimental: as §2, §3

[12] = system: E. coli (ATCC 25922); type: cell-based, Escherichia coli; settings: ATCC 25922
Experimental: as §3, §1

[13] = system: PK15 and HaCaT cells
Experimental: as §6, §7, §8

[14] = system: all bacterial strains in the panel and field isolates from milk; type: cell-based; settings: against all bacterial strains in the panel and field isolates from milk
Experimental: (§4) The standard bacterial strains used for antimicrobial activity assays include Staphylococcus aureus ATCC (American Type Culture Collection, Manassas, VA, USA) 6538, Bacillus cereus ATCC 10876, Enterococcus faecalis ATCC 29212, Streptococcus agalactiae ATCC 27956, Streptococcus dysgalactiae ATCC 27957, Streptococcus equi subsp. zooepidemicus ATCC 43079, Escherichia coli ATCC 25922, and Pseudomonas aeruginosa ATCC 27853. Most bacterial strains were cultured in LB medium except for E. faecalis and streptococci, which were cultivated in brain heart infusion (BHI) broth (BD Bioscience).
as §2, §3

[15] = system: eight standard bacterial strains; type: cell-based; settings: all eight standard strains; range stated for the three peptides
Experimental: as §4, with “[…]” for “agalactiae ATCC”, “Bioscience). […] Experiments were conducted in triplicate.” for “Bioscience).”

[16] = system: Enterococcus faecalis ATCC 29212; experiment: microbe, parasite or virus in culture; type: cell-based; settings: ATCC 29212, 6 h
Method in brief: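 Bacteria are grown in LB, except E. faecalis and streptococci, which use BHI broth. Each antimicrobial test is done in triplicate.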

[17] = system: Pseudomonas aeruginosa ATCC 27853; experiment: microbe, parasite or virus in culture; type: cell-based; settings: ATCC 27853, 6 h
Method in brief: (§5)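 Strains grown in LB medium, except E. faecalis and streptococci, which were grown in brain heart infusion broth. Run in triplicate.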

[18] = system: Streptococcus equi subsp. zooepidemicus ATCC 43079; experiment: microbe, parasite or virus in culture; type: cell-based; settings: ATCC 43079, 6 h
Method in brief: as §5

[19] = system: Staphylococcus aureus ATCC 6538; experiment: microbe, parasite or virus in culture; type: cell-based; settings: ATCC 6538, 6 h
Method in brief: as §5

[20] = system: Streptococcus agalactiae ATCC 27956; experiment: microbe, parasite or virus in culture; type: cell-based; settings: ATCC 27956, 6 h
Method in brief: as §5

[21] = system: Bacillus cereus ATCC 10876; experiment: microbe, parasite or virus in culture; type: cell-based; settings: ATCC 10876, 6 h
Method in brief: as §5

[22] = system: Streptococcus dysgalactiae ATCC 27957; experiment: microbe, parasite or virus in culture; type: cell-based; settings: ATCC 27957, 6 h
Method in brief: as §5

[23] = system: field isolates from milk with high SCCs; settings: all field isolates except A. hydrophila; range stated for the three peptides
Experimental: The minimum inhibitory concentration (MIC) was determined by following the manufacturer’s protocol and Clinical and Laboratory Standards Institute (CLSI) guidelines (2018) using a colourimetric method specified by the Microbial Viability Assay Kit-WST (Dojindo, Kumamoto, Japan). Four colonies of each bacterium were inoculated into 5 mL of LB medium and incubated at 37 °C for 4–6 h. The cells were then washed twice with sterile saline (0.9% NaCl) and seeded into a single well of a 96-well plate at a density of 1.5 × 10^5 cells/well, adjusting by McFarland standard 0.5. Subsequently, 180 µL/well of fresh MH broth (BD Bioscience) was added to the plate. Ampicillin, chloramphenicol, and gentamicin sulfate were used as controls for antimicrobial activity.
Different concentrations of each peptide and reference antibiotics (up to 40 µg/mL) were serially diluted in 10 µL of MH broth and added to each well. The plate was incubated at 37 °C for 6 h, using BHI broth to culture slow-growing fastidious strains, including E. faecalis, A. hydrophila, C. simulans, G. halophytocola, and streptococci. Cation-adjusted Mueller Hinton II broth (CAMHB) was employed to cultivate P. aeruginosa. Afterwards, 10 µL of the colouring reagent was added, and cells were incubated at 37 °C for 2 h. UV absorbance was measured for each well at 450 nm using a microplate spectrophotometer (xMark spectrophotometer; Bio-Rad, Hercules, CA, USA). The MIC values were determined when the absorbance difference between treatments and blanks (media and colouring reagent only) decreased to < 0.05. Experiments were conducted in triplicate.

[24] = system: PK15 cells
Experimental: as §6, §7, §8

[25] = system: HaCaT cells
Experimental: as §6, §7, §8

Substance: RVRRFWPLVPVAINTVAAGINLYKAIRRK [cc-CATH3]
- antibacterial activity after incubation with serum [1]: significantly affected in concentrations lower than 3 × MIC
- Cell viability ± SD, HaCaT ([2]; 64 μg/mL peptide): 100.6 ± 0.4%
- Cell viability ± SD, HaCaT ([2]; 160 μg/mL peptide): 90.1 ± 4.8%
- Haemolytic activity against bovine erythrocytes ([3]; 10 μg/mL, 2% (v/v) erythrocytes in PBS pH 7.4, 37 °C 1 h, mean ± SD): 0.0 ± 0.1%
- Haemolytic activity against bovine erythrocytes ([3]; 20 μg/mL, 2% erythrocytes in PBS pH 7.4, 37 °C 1 h): 0.0 ± 0.1%
- Haemolytic activity against bovine erythrocytes ([3]; 40 μg/mL, 2% erythrocytes in PBS pH 7.4, 37 °C 1 h): 0.4 ± 0.2%
- Haemolytic activity against bovine erythrocytes ([3]; 80 μg/mL, 2% erythrocytes in PBS pH 7.4, 37 °C 1 h): 0.8 ± 0.1%
- Cell viability ± SD, PK15 ([4]; 64 μg/mL peptide): 91.1 ± 1.8%
- Cell viability ± SD, PK15 ([4]; 160 μg/mL peptide): 32.7 ± 3.5%
- Minimal inhibitory concentration, Corynebacterium simulans [5]: 0.8 (0.2) μg/mL
- Minimal inhibitory concentration, Glutamicibacter halophytocola [6]: 2 (0.6) μg/mL
- Minimal inhibitory concentration, Staphylococcus chromogenes [7]: 3 (0.9) μg/mL
- Minimal inhibitory concentration, Staphylococcus xylosus [8]: 2 (0.6) μg/mL
- Minimal inhibitory concentration, Streptococcus uberis [9]: 4 (1.2) μg/mL
- Minimal inhibitory concentration, Staphylococcus epidermidis [10]: 2 (0.6) μg/mL
- Minimal inhibitory concentration, Aeromonas hydrophila [11]: > 160 (47.4) μg/mL
- Minimal inhibitory concentration against E. coli, 150 mM NaCl [12]: 1.6 µM
- cell viability of PK15 and HaCaT [13]: 91.1 ± 1.8% to 100.6 ± 0.4
- minimum inhibitory concentration, range over strains [14]: 0.2 to 10.3 µM
- MICs, range over all bacterial species in the test panel [15]: 2 to 42 µg/mL
- Minimal inhibitory concentration, Enterococcus faecalis [16]: 5 (1.5) μg/mL
- Minimal inhibitory concentration, Pseudomonas aeruginosa [17]: 4 (1.28) μg/mL
- Minimal inhibitory concentration, Streptococcus equi subsp. zooepidemicus [18]: 5 (1.5) μg/mL
- Minimal inhibitory concentration, Staphylococcus aureus [19]: 2 (0.6) μg/mL
- Minimal inhibitory concentration, Streptococcus agalactiae [20]: 4 (1.28) μg/mL
- Minimal inhibitory concentration, Bacillus cereus [21]: 4 (1.28) μg/mL
- Minimal inhibitory concentration, Streptococcus dysgalactiae [22]: 7 (2.0) μg/mL
- MICs, range over field isolates [23]: 0.8 to 5 µg/mL

Substance: Triton X-100 [Triton X-100 (1%)]
- Cell viability ± SD, PK15 [24]: 13.3 ± 0.1%
- Cell viability ± SD, HaCaT [25]: 13.0 ± 0.4%
